Measurements from US20220409619A1, “INHIBITORS OF HUMAN IMMUNODEFICIENCY VIRUS REPLICATION” (VIIV HEALTHCARE UK (No. 5) LIMITED, priority 2019, published 2022).

Assays:
[1] = tested on: recombinant NL4-3 virus (nef section replaced with Renilla luciferase gene) in MT-2 cells; experiment: HIV cell culture assay (antiviral activity, luciferase readout); assay type: cell-based; conditions: Renilla, NL43
Experimental: HIV cell culture assay—MT-2 cells, 293T cells and the proviral DNA clone of NL4-3 virus were obtained from the NIH AIDS Research and Reference Reagent Program. MT-2 cells were propagated in RPMI 1640 media supplemented with 10% heat inactivated fetal bovine serum (FBS), 100 μg/ml penicillin G and up to 100 units/mL streptomycin. The 293T cells were propagated in DMEM media supplemented with 10% heat inactivated FBS, 100 μg/mL penicillin G and 100 μg/mL streptomycin. A recombinant NL4-3 proviral clone, in which a section of the nef gene was replaced with the Renilla luciferase gene, was used to make the reference virus used in these studies. The recombinant virus was prepared through transfection of the recombinant NL4-3 proviral clone into 293T cells using Transit-293 Transfection Reagent from Mirus Bio LLC (Madison, Wis.). Supernatent was harvested after 2-3 days and the amount of virus present was titered in MT-2 cells using luciferase enzyme activity as a marker by measuring luciferase enzyme activity. Luciferase was quantitated using the EnduRen Live Cell Substrate from Promega (Madison, Wis.). Antiviral activities of compounds toward the recombinant virus were quantified by measuring luciferase activity in MT-2 cells infected for 4-5 days with the recombinant virus in the presence of serial dilutions of the compound.
The 50% effective concentration (EC50) was calculated by using the exponential form of the median effect equation where (Fa)=1/[1+(ED50/drug conc.)^m] (Johnson V A, Byington R T. Infectivity Assay. In Techniques in HIV Research. ed. Aldovini A, Walker B D. 71-76. New York: Stockton Press. 1990). Curve fitting and analysis were performed with ActivityBase XE Runner software version 9.1.0.4 using model 203 (ID Business Solutions, LTD, Guildford, UK).

[2] = Compound cytotoxicity, XTT-based colorimetric assay; assay type: cell-based; conditions: human; uninfected MT2 cells, day 4, XTT-based colorimetric assay
Experimental: Compound cytotoxicity and the corresponding CC50 values were determined using the same protocol as described in the antiviral assay except that uninfected cells were used. Cytotoxicity was assessed on day 4 in uninfected MT2 cells by using a XTT (2,3-bis[2-Methoxy-4-nitro-5-sulfophenyl]-2H-tetrazolium-5-carboxyanilide inner salt)-based colorimetric assay (Sigma-Aldrich, St Louis, Mo.).

| SMILES | EC50 [1] | CC50 at 4 days [2] |
| --- | --- | --- |
| CC(C)(C#Cc1cc(=O)n(-c2ccc(Cl)c3c(NS(=O)(=O)C4CC4)nn(CC(F)F)c23)c([C@H](Cc2cc(F)cc(F)c2)NC(=O)Cn2nc(C(F)F)c3c2C(F)(F)[C@@H]2C[C@H]32)n1)S(C)(=O)=O (atropisomer, axis not shown; (P)) [Example 47, N-((S)-1-((1P)-1-(4-chloro-3-(cyclopropanesulfonamido)-1-(2,2-difluoroethyl)-1H-indazol-7-yl)-4-(3-methyl-3-(methylsulfonyl)but-1-yn-1-yl)-6-oxo-1,6-dihydropyrimidin-2-yl)-2-(3,5-difluorophenyl)ethyl)-2-((3bS,4aR)-3-(difluoromethyl)-5,5-difluoro-3b,4,4a,5-tetrahydro-1H-cyclopropa[3,4]cyclopenta[1,2-c]pyrazol-1-yl)acetamide] | 0.047 nM | > 100 nM |
| COC(C)(C)C#Cc1cc(=O)n(-c2ccc(Cl)c3c(NS(C)(=O)=O)nn(C)c23)c([C@H](Cc2cc(F)cc(F)c2)NC(=O)Cn2nc(C(F)F)c3c2C(F)(F)[C@@H]2C[C@H]32)n1 (atropisomer, axis not shown; (P)) [Example 9, N-((S)-1-((1P)-1-(4-chloro-1-methyl-3-(methylsulfonamido)-1H-indazol-7-yl)-4-(3-methoxy-3-methylbut-1-yn-1-yl)-6-oxo-1,6-dihydropyrimidin-2-yl)-2-(3,5-difluorophenyl)ethyl)-2-((3bS,4aR)-3-(difluoromethyl)-5,5-difluoro-3b,4,4a,5-tetrahydro-1H-cyclopropa[3,4]cyclopenta[1,2-c]pyrazol-1-yl)acetamide] | 0.04 nM | > 100 nM |
| O=C(Cn1nc(C(F)F)c2c1C(F)(F)[C@@H]1C[C@H]21)N[C@@H](Cc1cc(F)cc(F)c1)c1nc(-c2cnccn2)cc(=O)n1-c1ccc(Cl)c2c(NS(=O)(=O)C3CC3)nn(CC(F)F)c12 (atropisomer, axis not shown; (P)) [Example 50, N-((S)-1-((1P)-1-(4-chloro-3-(cyclopropanesulfonamido)-1-(2,2-difluoroethyl)-1H-indazol-7-yl)-6-oxo-4-(pyrazin-2-yl)-1,6-dihydropyrimidin-2-yl)-2-(3,5-difluorophenyl)ethyl)-2-((3bS,4aR)-3-(difluoromethyl)-5,5-difluoro-3b,4,4a,5-tetrahydro-1H-cyclopropa[3,4]cyclopenta[1,2-c]pyrazol-1-yl)acetamide] | 0.81 nM | > 100 nM |
| COC(C)(C)C#Cc1cc(=O)n(-c2ccc(Cl)c3c(NS(=O)(=O)C4CC4)nn(CC(F)F)c23)c([C@H](Cc2cc(F)cc(F)c2)NC(=O)Cn2nc(C(F)F)c3c2C(F)(F)[C@@H]2C[C@H]32)n1 (atropisomer, axis not shown; (P)) [Example 41, N-((S)-1-((1P)-1-(4-chloro-3-(cyclopropanesulfonamido)-1-(2,2-difluoroethyl)-1H-indazol-7-yl)-4-(3-methoxy-3-methylbut-1-yn-1-yl)-6-oxo-1,6-dihydropyrimidin-2-yl)-2-(3,5-difluorophenyl)ethyl)-2-((3bS,4aR)-3-(difluoromethyl)-5,5-difluoro-3b,4,4a,5-tetrahydro-1H-cyclopropa[3,4]cyclopenta[1,2-c]pyrazol-1-yl)acetamide] | 0.064 nM | > 100 nM |
| O=C(Cn1nc(C(F)(F)F)c2c1C(F)(F)[C@@H]1C[C@H]21)N[C@@H](Cc1cc(F)cc(F)c1)c1nc(-c2nccc(C(F)(F)F)n2)cc(=O)n1-c1ccc(Cl)c2c(NS(=O)(=O)C3CC3)nn(CC(F)F)c12 [Example 26, N-((S)-1-((1′P)-1′-(4-chloro-3-(cyclopropanesulfonamido)-1-(2,2-difluoroethyl)-1H-indazol-7-yl)-6′-oxo-4-(trifluoromethyl)-1′,6′-dihydro-[2,4′-bipyrimidin]-2′-yl)-2-(3,5-difluorophenyl)ethyl)-2-((3bS,4aR)-5,5-difluoro-3-(trifluoromethyl)-3b,4,4a,5-tetrahydro-1H-cyclopropa[3,4]cyclopenta[1,2-c]pyrazol-1-yl)acetamide] | 0.11 nM | > 100 nM |
| CC(F)(F)Cn1ccc(-c2cc(=O)n(-c3ccc(Cl)c4c(NS(=O)(=O)C5CC5)nn(CC(F)F)c34)c([C@H](Cc3cc(F)cc(F)c3)NC(=O)Cn3nc(C(F)F)c4c3C(F)(F)[C@@H]3C[C@H]43)n2)n1 (atropisomer, axis not shown; (P)) [Example 42, N-((S)-1-((1P)-1-(4-chloro-3-(cyclopropanesulfonamido)-1-(2,2-difluoroethyl)-1H-indazol-7-yl)-4-(1-(2,2-difluoropropyl)-1H-pyrazol-3-yl)-6-oxo-1,6-dihydropyrimidin-2-yl)-2-(3,5-difluorophenyl)ethyl)-2-((3bS,4aR)-3-(difluoromethyl)-5,5-difluoro-3b,4,4a,5-tetrahydro-1H-cyclopropa[3,4]cyclopenta[1,2-c]pyrazol-1-yl)acetamide] | 0.21 nM | > 100 nM |
| CCc1cnc(-c2cc(=O)n(-c3ccc(Cl)c4c(NS(C)(=O)=O)nn(C)c34)c([C@H](Cc3cc(F)cc(F)c3)NC(=O)Cn3nc(C(F)F)c4c3C(F)(F)[C@@H]3C[C@H]43)n2)nc1 (atropisomer, axis not shown; (aR)) [Example 12, N-((S)-1-((1′P)-1′-(4-chloro-1-methyl-3-(methylsulfonamido)-1H-indazol-7-yl)-5-ethyl-6′-oxo-1′,6′-dihydro-[2,4′-bipyrimidin]-2′-yl)-2-(3,5-difluorophenyl)ethyl)-2-((3bS,4aR)-3-(difluoromethyl)-5,5-difluoro-3b,4,4a,5-tetrahydro-1H-cyclopropa[3,4]cyclopenta[1,2-c]pyrazol-1-yl)acetamide] | 0.019 nM | > 100 nM |
| O=C(Cn1nc(C(F)F)c2c1C(F)(F)[C@@H]1C[C@H]21)N[C@@H](Cc1cc(F)cc(F)c1)c1nc(-c2ncccn2)cc(=O)n1-c1ccc(Cl)c2c(NS(=O)(=O)C3CC3)nn(CC(F)F)c12 (atropisomer, axis not shown; (aR)) [Example 48, N-((S)-1-((1′P)-1′-(4-chloro-3-(cyclopropanesulfonamido)-1-(2,2-difluoroethyl)-1H-indazol-7-yl)-6′-oxo-1′,6′-dihydro-[2,4′-bipyrimidin]-2′-yl)-2-(3,5-difluorophenyl)ethyl)-2-((3bS,4aR)-3-(difluoromethyl)-5,5-difluoro-3b,4,4a,5-tetrahydro-1H-cyclopropa[3,4]cyclopenta[1,2-c]pyrazol-1-yl)acetamide] | 0.18 nM | > 100 nM |
| Cn1nc(NS(C)(=O)=O)c2c(Cl)ccc(-n3c([C@H](Cc4cc(F)cc(F)c4)NC(=O)Cn4nc(C(F)F)c5c4C(F)(F)[C@@H]4C[C@H]54)nc(-c4cnc(C(C)(C)O)s4)cc3=O)c21 (atropisomer, axis not shown; (P)) [Example 25, N-((S)-1-((1P)-1-(4-chloro-1-methyl-3-(methylsulfonamido)-1H-indazol-7-yl)-4-(2-(2-hydroxypropan-2-yl)thiazol-5-yl)-6-oxo-1,6-dihydropyrimidin-2-yl)-2-(3,5-difluorophenyl)ethyl)-2-((3bS,4aR)-3-(difluoromethyl)-5,5-difluoro-3b,4,4a,5-tetrahydro-1H-cyclopropa[3,4]cyclopenta[1,2-c]pyrazol-1-yl)acetamide] | 1.5 nM | > 100 nM |
| Cn1nc(NS(C)(=O)=O)c2c(Cl)ccc(-n3c([C@@H](Cc4cc(F)cc(F)c4)NC(=O)Cn4nc(C(F)F)c5c4C(F)(F)[C@@H]4C[C@H]54)nc(-c4ccccc4)cc3=O)c21 (atropisomer, axis not shown; (aR)) [Example 2, N-((R)-1-(1-(4-chloro-1-methyl-3-(methylsulfonamido)-1H-indazol-7-yl)-6-oxo-4-phenyl-1,6-dihydropyrimidin-2-yl)-2-(3,5-difluorophenyl)ethyl)-2-((3bS,4aR)-3-(difluoromethyl)-5,5-difluoro-3b,4,4a,5-tetrahydro-1H-cyclopropa[3,4]cyclopenta[1,2-c]pyrazol-1-yl)acetamide] | 190 nM | > 500 nM |
| COc1cnc(-c2cc(=O)n(-c3ccc(Cl)c4c(NS(=O)(=O)C5CC5)nn(CC(F)F)c34)c([C@H](Cc3cc(F)cc(F)c3)NC(=O)Cn3nc(C(F)F)c4c3C(F)(F)[C@@H]3C[C@H]43)n2)cn1 (atropisomer, axis not shown; (P)) [Example 31, N-((S)-1-((1P)-1-(4-chloro-3-(cyclopropanesulfonamido)-1-(2,2-difluoroethyl)-1H-indazol-7-yl)-4-(5-methoxypyrazin-2-yl)-6-oxo-1,6-dihydropyrimidin-2-yl)-2-(3,5-difluorophenyl)ethyl)-2-((3bS,4aR)-3-(difluoromethyl)-5,5-difluoro-3b,4,4a,5-tetrahydro-1H-cyclopropa[3,4]cyclopenta[1,2-c]pyrazol-1-yl)acetamide] | 0.53 nM | > 100 nM |
